Measurements taken from US4550186A, “Binuclear copper (II) carboxylates formed from amine-carboxyboranes” (Duke University, priority 1983, dated 1985).
Where two headings read alike, the source gives them in different places.

Tests used:
[1] = tested on: inosinic acid dehydrogenase; experiment: In vivo inosinic acid dehydrogenase activity; parameters: species or system mouse
Experimental: (§1) CF1 male mice (~30 g) were implanted with 2×10^6 Ehrlich ascites tumor cells, intraperitoneally on Day 0. Compound I was suspended by homogenation in 0.05% polysorbate.80-water and administered intraperitoneally at 10 and 20 mg/kg for 9 days to determine its effectiveness for inhibition of tumor growth. Mice were sacrificed on Day 10, and the ascites fluid was collected from the peritoneal cavity. The volume and ascrit (packed cell volume) were determined for each animal and the percent inhibition of tumor growth was calculated. For the metabolic studies, mice were treated on Days 8 and 9 with 10 mg/kg of Compound I, intraperitoneally. […]
(§2) Carbamyl phosphate synthetase activity was determined using the reaction medium of Kalman et al [Am. […] Citrulline formed from ornithine was measured at 490 nm by the method of Archibald [J. Biol. Chem., 156, 121 (1944)]. […] The ^14 CO2 generated in 15 min was trapped in 1M KOH and counted. Thymidylate synthetase activity was determined using a post-mitochondrial supernatant (9000 g×10 min) and 5 μCi of 5-^3 H-deoxyuridine monophosphate (14 Ci/mmol) according to the method of Kampf et al [ J. Med. Chem., 19, 903 (1976)]. ^14 C-Formate incorporation into purines was determined by the method of Spassova et al [Biochem. Pharmacol., 25, 923 (1976)] using 0.5 μCi of ^14 C-formic acid (52.0 mCi/mmol). […] The Rf value for xanthine monophosphate was scraped and counted. […]

[2] = molecular target: T1, aspartate carbamyl transferase (Mus musculus, UniProt B2RQC6); experiment: In vitro aspartate carbamyl transferase activity; assay type: biochemical; details: 0.25 to 1.0 mM
T1 construct: ATCase domain of CAD
T1 sequence (B2RQC6 2-2225): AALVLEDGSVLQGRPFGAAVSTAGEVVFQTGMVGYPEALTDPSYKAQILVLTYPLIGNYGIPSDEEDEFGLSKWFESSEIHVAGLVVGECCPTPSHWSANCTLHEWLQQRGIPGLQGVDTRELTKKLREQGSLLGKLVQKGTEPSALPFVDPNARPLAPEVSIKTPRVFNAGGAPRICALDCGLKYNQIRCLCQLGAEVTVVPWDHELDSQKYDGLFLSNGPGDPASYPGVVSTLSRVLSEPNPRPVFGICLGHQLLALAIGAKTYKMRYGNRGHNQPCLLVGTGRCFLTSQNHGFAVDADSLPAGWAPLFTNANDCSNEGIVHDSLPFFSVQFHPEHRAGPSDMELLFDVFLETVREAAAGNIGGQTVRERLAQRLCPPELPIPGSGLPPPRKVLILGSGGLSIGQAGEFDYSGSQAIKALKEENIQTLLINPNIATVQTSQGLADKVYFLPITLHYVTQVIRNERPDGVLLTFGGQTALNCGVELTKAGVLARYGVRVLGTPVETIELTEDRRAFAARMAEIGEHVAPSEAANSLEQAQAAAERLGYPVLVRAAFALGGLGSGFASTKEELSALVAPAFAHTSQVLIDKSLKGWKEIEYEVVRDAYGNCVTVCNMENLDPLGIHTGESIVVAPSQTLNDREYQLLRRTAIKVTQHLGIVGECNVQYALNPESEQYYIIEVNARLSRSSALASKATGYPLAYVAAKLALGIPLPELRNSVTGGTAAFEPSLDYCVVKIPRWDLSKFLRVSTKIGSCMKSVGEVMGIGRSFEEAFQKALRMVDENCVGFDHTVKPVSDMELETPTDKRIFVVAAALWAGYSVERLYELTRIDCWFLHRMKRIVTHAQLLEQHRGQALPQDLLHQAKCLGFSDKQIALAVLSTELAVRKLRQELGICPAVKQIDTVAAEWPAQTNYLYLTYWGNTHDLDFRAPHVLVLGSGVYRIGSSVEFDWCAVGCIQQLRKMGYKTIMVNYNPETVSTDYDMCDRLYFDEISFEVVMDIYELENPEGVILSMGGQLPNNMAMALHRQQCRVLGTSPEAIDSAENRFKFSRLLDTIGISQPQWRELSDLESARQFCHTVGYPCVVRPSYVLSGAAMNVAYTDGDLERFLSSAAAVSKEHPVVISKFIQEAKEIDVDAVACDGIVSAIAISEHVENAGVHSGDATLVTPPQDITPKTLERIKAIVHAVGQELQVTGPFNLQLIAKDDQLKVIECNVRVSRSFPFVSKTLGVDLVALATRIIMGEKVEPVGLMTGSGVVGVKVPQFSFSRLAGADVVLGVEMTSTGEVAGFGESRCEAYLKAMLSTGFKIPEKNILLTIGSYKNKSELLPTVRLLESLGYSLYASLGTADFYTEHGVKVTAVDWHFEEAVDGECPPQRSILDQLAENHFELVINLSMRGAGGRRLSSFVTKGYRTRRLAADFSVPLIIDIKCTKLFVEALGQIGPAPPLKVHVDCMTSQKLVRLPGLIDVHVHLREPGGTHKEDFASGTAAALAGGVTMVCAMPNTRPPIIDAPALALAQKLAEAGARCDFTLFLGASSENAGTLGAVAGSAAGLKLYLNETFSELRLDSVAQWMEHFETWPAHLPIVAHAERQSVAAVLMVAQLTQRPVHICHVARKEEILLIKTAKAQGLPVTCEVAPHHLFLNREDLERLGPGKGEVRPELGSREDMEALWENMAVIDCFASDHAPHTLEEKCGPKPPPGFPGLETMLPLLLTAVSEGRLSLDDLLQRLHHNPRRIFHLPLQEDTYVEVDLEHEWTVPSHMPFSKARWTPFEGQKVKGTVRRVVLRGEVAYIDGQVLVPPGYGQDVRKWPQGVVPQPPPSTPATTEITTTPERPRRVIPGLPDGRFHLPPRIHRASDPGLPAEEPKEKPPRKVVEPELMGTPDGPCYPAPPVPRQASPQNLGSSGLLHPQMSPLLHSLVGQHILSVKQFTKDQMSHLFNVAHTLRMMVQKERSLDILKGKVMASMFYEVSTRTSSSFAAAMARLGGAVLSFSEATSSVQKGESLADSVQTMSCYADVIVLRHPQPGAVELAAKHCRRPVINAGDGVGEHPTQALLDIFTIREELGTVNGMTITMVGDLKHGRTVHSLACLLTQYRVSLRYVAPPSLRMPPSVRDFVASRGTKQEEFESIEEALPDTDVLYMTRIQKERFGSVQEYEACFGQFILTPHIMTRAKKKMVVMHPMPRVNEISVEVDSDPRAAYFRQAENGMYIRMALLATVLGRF
Experimental: as §1, §2

[3] = tested on: sn-Glycerol-3-phosphate Acyl Transferase; experiment: In vitro liver enzyme study: sn-glycerol-3-phosphate acyl transferase; assay type: biochemical, mouse; details: in vitro CF1 liver
Experimental: In vitro enzymatic studies were determined using 10% homogenates of CF1 male mouse liver with 50-200 μM of test drugs. In vivo enzymatic studies were determined using 10% homogenates of liver from CF1 male mice obtained after administering the agents for 16 days at a dose ranging from 2.5-20 mg/kg/day intraperitoneally. The liver homogenates for both in vitro and in vivo studies were prepared in 0.25M sucrose and 0.001M (ethylenedinitrilo)tetraacetic acid. Acetyl coenzyme A synthetase and adenosine triphosphate dependent citrate lyase activities were determined spectrophotometrically at 540 nm as the hydroxylamate of acetyl coenzyme A formed after 30 min at 37° C. Mitochondrial citrate exchange was determined by the procedure of Robinson et al [Eur. J. Biochem., 216, 63 (1970)] using ^14 C-sodium bicarbonate (41 mCi/mmol) incorporated into mitochondrial ^14 C-citrate after isolating rat mitochondria (9000 g×10 min) from the homogenates. The exchanges of the ^14 C-citrate were determined after incubating the mitochondrial fraction which was loaded with labeled citrate and test drugs for 10 min. Then the radioactivity was measured in the mitochondrial and supernantant fractions in scintillation fluid and expressed as a percentage. Cholesterol side chain oxidation was determined by the method of Kritchevsky and Tepper [Artherosclerosis, 18, 93 (1973)] using (26-^14 C) cholesterol (50 mCi/mmol) and mitochondria isolated from rat liver homogenates. […] Fatty acid synthetase activity was determined by the method of Brady et al [J. Biol. Chem., 235, 3093 (1960)] using [2-^14 C] malonyl-coenzyme A (37.5 mCi/mmol) which was incorporated into newly synthesized fatty acids that were extracted with ether and counted. Acyl transferase activity was determined with glycerol-3phosphate [L-2-^3 H(N)] […] HCl and counted. Phosphatidate phosphohydrolase activity was measured as the inorganic phosphate released after 30 min from phosphatidic acid by the method of Mavis et al [J. Lipid Res., 19, 467 (1978)]. […]

Substance: {Cu[(CH3)3 N.BH2 CO2 ]2.(CH3)3 N.BH2 COOH} [Compound I]
- Inosinic acid dehydrogenase activity [1]: essentially not affected
- Inosinic acid dehydrogenase activity ([1]; 10 mg/kg/day I.P. on Days 8 and 9): 100 ± 9 % Control
- aspartate carbamyl transferase inhibition [2]: not inhibited
- sn-Glycerol-3-phosphate Acyl Transferase ([3]; 50 μM): 108 ± 6 Percent Control
- sn-Glycerol-3-phosphate Acyl Transferase ([3]; 100 μM): 92 ± 8 Percent Control
- sn-Glycerol-3-phosphate Acyl Transferase ([3]; 200 μM): 89 ± 6 Percent Control
